From ChEMBL document CHEMBL1138441, “3-Benzyl-1,3-oxazolidin-2-ones as mGluR2 positive allosteric modulators: Hit-to lead and lead optimization” (Bioorg Med Chem Lett, 2009)

What was measured:
[1] = Plasma concentration in mouse at 10 mg/kg, sc after 2 hrs; assay type: ADME, organism-based; design: dose 10 mg/kg, route subcutaneous; details: read-out: Drug uptake
[2] = Oral bioavailability in rat at 10 mg/kg; assay type: ADME, organism-based; details: in vivo
[3] = Drug level in mouse brain at 10 mg/kg, sc after 2 hrs; assay type: ADME, organism-based; design: dose 10 mg/kg, route subcutaneous; details: read-out: Drug uptake
[4] = Volume of distribution at steady state in rat at 1 mg/kg, iv; assay type: ADME, organism-based; design: dose 1 mg/kg, route intravenous; details: in vivo, read-out: Vdss
[5] = Ratio of drug level in mouse brain to plasma at 10 mg/kg, sc after 2 hrs; assay type: ADME, organism-based; design: dose 10 mg/kg, route subcutaneous
[6] = Drug level in mouse brain at > 32 mg/kg, sc after 30 mins; assay type: ADME, organism-based; design: dose 32 mg/kg, route subcutaneous; details: read-out: Drug uptake
[7] = Oral bioavailability in rat at 3 mg/kg; assay type: ADME, organism-based; details: in vivo
[8] = Plasma concentration in mouse at > 32 mg/kg, sc after 30 mins; assay type: ADME, organism-based; design: dose 32 mg/kg, route subcutaneous; details: read-out: Drug uptake
[9] = Ratio of drug level in mouse brain to plasma at > 32 mg/kg, sc after 30 mins; assay type: ADME, organism-based; design: dose 32 mg/kg, route subcutaneous
[10] = Permeability from apical to basolateral side of MDCK cells at 2 uM by MS based assay; assay type: ADME, cell-based, Canis lupus familiaris; details: dog

| concentration at 2 h [1] [ng/mL] | bioavailability [2] [%] | concentration at 2 h [3] [ng/g] | Vd [4] [L/kg] | Kp at 2 h [5] | concentration at 0.5 h [6] [ng/g] | bioavailability [7] [%] | concentration at 0.5 h [8] [ng/mL] | Kp at 0.5 h [9] | Papp A→B at 2 µM [10] [×10⁻⁶ cm/s] | Compound |
| --- | --- | --- | --- | --- | --- | --- | --- | --- | --- | --- |
| 750 | 64 | 2750 | 3.2 | 3.7 | – | – | – | – | – | C[C@@H]1CN(Cc2ccc(-c3ccc(F)c(Cl)c3)cc2)C(=O)O1 |
| 1070 | – | 2230 | – | 2.1 | – | – | – | – | – | C[C@@H]1CN(Cc2ccc(-c3ccc(F)cc3F)cc2)C(=O)O1 |
| – | – | – | 4.7 | – | 10100 | 100 | 3550 | – | – | C[C@@H]1CN(Cc2ccc(-c3ccc(OC(F)(F)F)cc3F)nc2)C(=O)O1 |
| – | – | – | – | – | – | – | – | 3 | 12.3 | CC(Oc1ccc(CN2C[C@@H](C)OC2=O)cc1)C1CCCCC1 (single isomer, unassigned) |
